Data reported in patent US10851067B2, “Kv7 channel activators compositions and methods of use” (Knopp Biosciences LLC, priority 2018, dated 2020).

target: T1, Kv7.2/7.3 (Homo sapiens, UniProt O43525+O43526); experiment: Kv7.2/7.3 Thallium Flux Assay; type: cell-based; set-up: host or cells: HEK cells, tetracycline-inducible expression; settings: read-out: Kv7.2/7.3 Activity: EC50 of Kv7.2/Kv7.3 activation
Source text: The Thallium Flux Assay is used as a surrogate indicator of potassium channel activity.
The experimental protocol was adapted from the FluxOR™ II Green Potassium Ion Channel Assay User Guide (Pub. No. MAN0016084, Invitrogen). Conditions were optimized for the Kv7.2/7.3 cell line.
The hKV7.2/7.3 cell line was obtained from Chantest (Cleveland, Ohio 44128) cat. #CT6147.
Kv7.2/7.3 cells were maintained in a media containing DMEM/F12; 50/50 (GIBCO cat. #11330), 10% Fetal Bovine Serum (FBS) (GIBCO cat. #26140), 100 units/mL Penicillin-Streptomycin (GIBCO cat. #15140), 0.005 mg/ml Blasticidin (SIGMA 15205), 0.5 mg/mL Geneticin (GIBCO cat. #10131), and 0.1 mg/mL Zeocin (GIBCO cat. #R25001). One day prior to experimentation, cells were plated in 96 well clear bottom plates (Corning cat. #353219) in a media without Blasticidin, Geneticin, or Zeocin. Channel expression was induced by adding tetracycline (Bioline cat. #BIO87030) at a final concentration of 10 ng/mL.
The test compound is diluted in a mixture of 0.1% DMSO/extracellular solution with an eight-point concentration range from 0.014 μM to 30 μM. Serial dilutions were made on a Biomek NXP (BECKMAN COULTER).
Measurement and Data Analysis:
A plate reader (Enspire, Perkin Elmer) is used to characterize the ion-channel modulating properties of novel compounds using an excitation wavelength of 475 nm and an emission wavelength of 530 nm. After a 15 sec baseline measurement, the stimulus buffer containing thallium and potassium is injected. A final endpoint measure is taken after 90 sec. Responses are normalized to positive control (retigabine, 30 µM max). Mean normalized responses at each concentration tested are fit to the standard Hill equation to generate an EC50 and maximal response.

| Compound | EC50 [nM] |
| --- | --- |
| CC(C)(C)CC(=O)Nc1nc2cccc(OC(F)(F)F)c2n1C1CCC1 [Example 516, N-(1-cyclobutyl-7-(trifluoromethoxy)-1H-benzo[d]imidazol-2-yl)-3,3-dimethylbutanamide] | < 1000 |

target: T1, Kv7.2/7.3; experiment: Kv7.2/7.3 Activation Assay, QPatch single concentration screen; type: cell-based; set-up: host or cells: HEK cells, tetracycline-inducible expression; key: 1.2-2.9 (+); 3-3.9 (++); >4 (+++) fold increase over baseline; O represents open channel at holding potential; settings: Kv7.2/Kv7.3 co-expressing HEK cells, compound concentration 3 μM, steady-state current at end of 2 s pulse to −30 mV
How it was run: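 Tetracycline-induced HEK cells expressing human Kv7.2/7.3, recorded 24 h post-induction by automated planar patch clamp. From −80 mV, 2 s steps to −30 mV then 100 ms to −120 mV; compound tested at 3 μM (0.1% DMSO). Steady-state current at end of −30 mV step gives fold increase over baseline.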

| Compound | Kv7.2/7.3 Activity: increase over baseline in current |
| --- | --- |
| COc1c(Cl)c(Cl)c(Cl)c2nc(NC(=O)CC(C)(C)C)n(C3CCC3)c12 [Example 414, 3,3-dimethyl-N-(4,5,6-trichloro-1-cyclobutyl-7-methoxy-1H-benzo[d]imidazol-2-yl)butanamide] | ++ (3-3.9 (++)) |
| C[C@H](CC(=O)Nc1nc2ccc(C(C)(C)O)cc2n1C1CCC1)c1ccccc1 [Example 336, (R)-N-(1-cyclobutyl-6-(2-hydroxypropan-2-yl)-1H-benzo[d]imidazol-2-yl)-3-phenylbutanamide] | + (1.2-2.9 (+)) |
| CC(C)(O)c1ccc2nc(NC(=O)CC(C)(C)C3CC3)n(C34CC(C3)C4)c2c1 [Example 472, N-(1-(bicyclo[1.1.1]pentan-1-yl)-6-(2-hydroxypropan-2-yl)-1H-benzo[d]imidazol-2-yl)-3-cyclopropyl-3-methylbutanamide] | +++ (>4 (+++) fold increase over baseline) |
| C[C@@H](CC(=O)Nc1nc2ccc(C(C)(C)O)cc2n1C1CCC1)c1ccccc1 [Example 369, (S)-N-(1-cyclobutyl-6-(2-hydroxypropan-2-yl)-1H-benzo[d]imidazol-2-yl)-3-phenylbutanamide] | O |
| COc1cccc2nc(NC(=O)CC(C)(C)C3CC3)n(C3CCC3)c12 [Example 458, N-(1-cyclobutyl-7-methoxy-1H-benzo[d]imidazol-2-yl)-3-cyclopropyl-3-methylbutanamide] | +++ (>4 (+++) fold increase over baseline) |
| CC(O)(CC(=O)Nc1nc2ccc(C#N)cc2n1C1CCC1)c1ccccc1F (single isomer, unassigned) [Example 452, N-(6-cyano-1-cyclobutyl-1H-benzo[d]imidazol-2-yl)-3-(2-fluorophenyl)-3-hydroxybutanamide] | O |
| CC(C)(C)CC(=O)Nc1nc2ccc(OC(F)F)cc2n1C1(C)CCC1 [Example 346, N-(6-(difluoromethoxy)-1-(1-methylcyclobutyl)-1H-benzo[d]imidazol-2-yl)-3,3-dimethylbutanamide] | ++ (3-3.9 (++)) |
| CC(C)(C)CC(=O)Nc1nc2ccc(C(C)(C)O)cc2n1CC(F)(F)F [Example 440, N-(6-(2-hydroxypropan-2-yl)-1-(2,2,2-trifluoroethyl)-1H-benzo[d]imidazol-2-yl)-3,3-dimethylbutanamide] | + (1.2-2.9 (+)) |
| CC(O)(CC(=O)Nc1nc2ccc(OC(F)F)cc2n1C1CCC1)c1ccccc1 (single isomer, unassigned) [Example 422, N-(1-cyclobutyl-6-(difluoromethoxy)-1H-benzo[d]imidazol-2-yl)-3-hydroxy-3-phenylbutanamide] | + (1.2-2.9 (+)) |
| CC(C)(O)c1cc(F)c2nc(NC(=O)CC(C)(C)C(F)F)n(C3CCC3)c2c1 [Example 456, N-(1-cyclobutyl-4-fluoro-6-(2-hydroxypropan-2-yl)-1H-benzo[d]imidazol-2-yl)-4,4-difluoro-3,3-dimethylbutanamide] | ++ (3-3.9 (++)) |
| COc1cccc2nc(NC(=O)CC(C)(C)C)n(C3CCC3)c12 [Example 476, N-(1-cyclobutyl-7-methoxy-1H-benzo[d]imidazol-2-yl)-3,3-dimethylbutanamide] | + (1.2-2.9 (+)) |
| CC(O)(CC(=O)Nc1nc2cc(Cl)c(C#N)cc2n1C1CCC1)c1ccccc1 (single isomer, unassigned) [Example 347, N-(5-chloro-6-cyano-1-cyclobutyl-1H-benzo[d]imidazol-2-yl)-3-hydroxy-3-phenylbutanamide] | + (1.2-2.9 (+)) |
| CC(O)(CC(=O)Nc1nc2ccc(C#N)cc2n1CC1CC1)c1ccccc1 (single isomer, unassigned) [Example 428, N-(6-cyano-1-(cyclopropylmethyl)-1H-benzo[d]imidazol-2-yl)-3-hydroxy-3-phenylbutanamide] | ++ (3-3.9 (++)) |
| CC(C)(C)CC(=O)Nc1nc2c(F)cc(C#N)cc2n1C1CCC1 [Example 411, N-(6-cyano-1-cyclobutyl-4-fluoro-1H-benzo[d]imidazol-2-yl)-3,3-dimethylbutanamide] | +++ (>4 (+++) fold increase over baseline) |
| CC(C)(O)c1cc(F)c2nc(NC(=O)CC3CC(F)(F)C3(F)F)n(C3CCC3)c2c1 (single isomer, unassigned) [Example 400, N-(1-cyclobutyl-4-fluoro-6-(2-hydroxypropan-2-yl)-1H-benzo[d]imidazol-2-yl)-2-(2,2,3,3-tetrafluorocyclobutyl)acetamide] | +++ (>4 (+++) fold increase over baseline) |
| COc1cc(Br)cc2c1nc(NC(=O)CC(C)(C)C)n2C1CCC1 [Example 382, N-(6-bromo-1-cyclobutyl-4-methoxy-1H-benzo[d]imidazol-2-yl)-3,3-dimethylbutanamide] | +++ (>4 (+++) fold increase over baseline) |
| CC(C)(O)c1c(F)cc2nc(NC(=O)CC(C)(C)C(F)(F)F)n(C3CCC3)c2c1F [Example 470, N-(1-cyclobutyl-5,7-difluoro-6-(2-hydroxypropan-2-yl)-1H-benzo[d]imidazol-2-yl)-4,4,4-trifluoro-3,3-dimethylbutanamide] | + (1.2-2.9 (+)) |
| CC(C)(CC(=O)Nc1nc2c(F)cc(C#N)c(F)c2n1C1CCC1)C1CC1 [Example 464, N-(6-cyano-1-cyclobutyl-4,7-difluoro-1H-benzo[d]imidazol-2-yl)-3-cyclopropyl-3-methylbutanamide] | ++ (3-3.9 (++)) |
| CC(C)(CC(=O)Nc1nc2c(F)cc(C#N)cc2n1C(C)(C)C)C(F)F [Example 364, N-(1-(tert-butyl)-6-cyano-4-fluoro-1H-benzo[d]imidazol-2-yl)-4,4-difluoro-3,3-dimethylbutanamide] | ++ (3-3.9 (++)) |
| CC(C)(CC(=O)Nc1nc2c(F)cc(C#N)cc2n1C(C)(C)C)C1CC1 [Example 482, N-(1-(tert-butyl)-6-cyano-4-fluoro-1H-benzo[d]imidazol-2-yl)-3-cyclopropyl-3-methylbutanamide] | +++ (>4 (+++) fold increase over baseline) |
| CC(C)(C)CC(=O)Nc1nc2ccc(C(C)(C)O)cc2n1C12CC(C1)C2 [Example 425, N-(1-(bicyclo[1.1.1]pentan-1-yl)-6-(2-hydroxypropan-2-yl)-1H-benzo[d]imidazol-2-yl)-3,3-dimethylbutanamide] | ++ (3-3.9 (++)) |
| CC(C)(C)CC(=O)Nc1nc2c(F)cc(C(C)(O)C3CC3)cc2n1C1CCC1 (stereo not shown) [Example 445, N-(1-cyclobutyl-6-(1-cyclopropyl-1-hydroxyethyl)-4-fluoro-1H-benzo[d]imidazol-2-yl)-3,3-dimethylbutanamide] | ++ (3-3.9 (++)) |
| CC(C)(C)CC(=O)Nc1nc2cc(F)c(C3(O)CCC3)c(F)c2n1C1CCC1 [Example 424, N-(1-cyclobutyl-5,7-difluoro-6-(1-hydroxycyclobutyl)-1H-benzo[d]imidazol-2-yl)-3,3-dimethylbutanamide] | O |
| CC(C)(C)CC(=O)Nc1nc2cccc(C#N)c2n1C1(C)CCC1 [Example 473, N-(7-cyano-1-(1-methylcyclobutyl)-1H-benzo[d]imidazol-2-yl)-3,3-dimethylbutanamide] | ++ (3-3.9 (++)) |
